These results are taken from ChEMBL document CHEMBL6134788, “Development of naphthalimide hydrazide derivatives as potent antibacterial agents against carbapenem-resistant A. baumannii” (RSC Med Chem, 2024).

For data set [1], the system named is Acinetobacter baumannii. Description: Antibacterial activity against carbapenem-resistant Acinetobacter baumannii BAA 1605 assessed as inhibition of bacterial growth incubated for 16 to 18 hrs by CLSI protocol based method. The class given is functional. The conditions noted are these: time 16-18 hrs.
In data set [2] the test system is Acinetobacter baumannii. Kind of data set: Antibacterial activity against multi-drug resistant Acinetobacter baumannii H72721 assessed as inhibition of bacterial growth incubated for 16 to 18 hrs by CLSI protocol based method. The settings on record: time 16-18 hrs, read-out: MIC100. The class given is functional.
Data set [3] has as its system Acinetobacter baumannii. Description: Antibacterial activity against multi-drug resistant Acinetobacter baumannii clinical isolate 1 assessed as inhibition of bacterial growth incubated for 16 to 18 hrs by CLSI protocol based method. The conditions noted are these: time 16-18 hrs, read-out: MIC100. It is filed as functional.
Data set [4] relates to Acinetobacter baumannii. Kind of data set: Antibacterial activity against multi-drug resistant Acinetobacter baumannii clinical isolate 2 assessed as inhibition of bacterial growth incubated for 16 to 18 hrs by CLSI protocol based method. It is filed as functional. The settings on record: time 16-18 hrs, read-out: MIC100.
Data set [5] has as its system Acinetobacter baumannii. Kind of data set: Antibacterial activity against multi-drug resistant Acinetobacter baumannii clinical isolate 3 assessed as inhibition of bacterial growth incubated for 16 to 18 hrs by CLSI protocol based method. The class given is functional. The conditions noted are these: time 16-18 hrs, read-out: MIC100.
The test system of data set [6] is Acinetobacter baumannii. Kind of data set: Antibacterial activity against multi-drug resistant Acinetobacter baumannii clinical isolate 4 assessed as inhibition of bacterial growth incubated for 16 to 18 hrs by CLSI protocol based method. The class given is functional. The settings on record: time 16-18 hrs, read-out: MIC100.
Data set [7] concerns Acinetobacter baumannii. Kind of data set: Antibacterial activity against multi-drug resistant Acinetobacter baumannii clinical isolate 5 assessed as inhibition of bacterial growth incubated for 16 to 18 hrs by CLSI protocol based method. The class given is functional. The conditions noted are these: time 16-18 hrs, read-out: MIC100.
Data set [8] relates to Acinetobacter baumannii. Kind of data set: Antibacterial activity against multi-drug resistant Acinetobacter baumannii clinical isolate 6 assessed as inhibition of bacterial growth incubated for 16 to 18 hrs by CLSI protocol based method. It is filed as functional. The settings on record: time 16-18 hrs, read-out: MIC100.
For data set [9], the system named is Acinetobacter baumannii. Description: Antibacterial activity against multi-drug resistant Acinetobacter baumannii clinical isolate 7 assessed as inhibition of bacterial growth incubated for 16 to 18 hrs by CLSI protocol based method. It is filed as functional. The settings on record: time 16-18 hrs, read-out: MIC100.
The subject of data set [10] is Acinetobacter baumannii. Description: Antibacterial activity against multi-drug resistant Acinetobacter baumannii clinical isolate 8 assessed as inhibition of bacterial growth incubated for 16 to 18 hrs by CLSI protocol based method. It is filed as functional. The settings on record: time 16-18 hrs, read-out: MIC100.
For data set [11], the system named is Acinetobacter baumannii. Kind of data set: Antibacterial activity against multi-drug resistant Acinetobacter baumannii clinical isolate 9 assessed as inhibition of bacterial growth incubated for 16 to 18 hrs by CLSI protocol based method. It is filed as functional. The conditions noted are these: time 16-18 hrs, read-out: MIC100.
In data set [12] the test system is Acinetobacter baumannii. Description: Antibacterial activity against multi-drug resistant Acinetobacter baumannii clinical isolate 10 assessed as inhibition of bacterial growth incubated for 16 to 18 hrs by CLSI protocol based method. The settings on record: time 16-18 hrs, read-out: MIC100. The class given is functional.
Data set [13] has as its system Acinetobacter baumannii. Kind of data set: Antibacterial activity against multi-drug resistant Acinetobacter baumannii clinical isolate 11 assessed as inhibition of bacterial growth incubated for 16 to 18 hrs by CLSI protocol based method. The class given is functional. The conditions noted are these: time 16-18 hrs, read-out: MIC100.
The test system of data set [14] is Acinetobacter baumannii. Description: Antibacterial activity against multi-drug resistant Acinetobacter baumannii clinical isolate 12 assessed as inhibition of bacterial growth incubated for 16 to 18 hrs by CLSI protocol based method. The class given is functional. The conditions noted are these: time 16-18 hrs, read-out: MIC100.
The subject of data set [15] is Acinetobacter baumannii. Kind of data set: Antibacterial activity against multi-drug resistant Acinetobacter baumannii NR-17777 assessed as inhibition of bacterial growth incubated for 16 to 18 hrs by CLSI protocol based method. The class given is functional. The conditions noted are these: time 16-18 hrs, read-out: MIC100.
Data set [16] concerns Acinetobacter baumannii. Kind of data set: Antibacterial activity against multi-drug resistant Acinetobacter baumannii 5-032 assessed as inhibition of bacterial growth incubated for 16 to 18 hrs by CLSI protocol based method. The class given is functional. The settings on record: time 16-18 hrs, read-out: MIC100.
Data set [17] has as its system Acinetobacter baumannii. Kind of data set: Antibacterial activity against multi-drug resistant Acinetobacter baumannii 5-109 assessed as inhibition of bacterial growth incubated for 16 to 18 hrs by CLSI protocol based method. The class given is functional. The settings on record: time 16-18 hrs, read-out: MIC100.
Data set [18] has as its system Acinetobacter baumannii. Kind of data set: Antibacterial activity against multi-drug resistant Acinetobacter baumannii 5-143 assessed as inhibition of bacterial growth incubated for 16 to 18 hrs by CLSI protocol based method. The class given is functional. The conditions noted are these: time 16-18 hrs, read-out: MIC100.
The subject of data set [19] is Acinetobacter baumannii. Description: Antibacterial activity against multi-drug resistant Acinetobacter baumannii 5-189 assessed as inhibition of bacterial growth incubated for 16 to 18 hrs by CLSI protocol based method. The class given is functional. The conditions noted are these: time 16-18 hrs, read-out: MIC100.
Data set [20] concerns Acinetobacter baumannii. Description: Antibacterial activity against multi-drug resistant Acinetobacter baumannii BC-5 assessed as inhibition of bacterial growth incubated for 16 to 18 hrs by CLSI protocol based method. The class given is functional. The conditions noted are these: time 16-18 hrs, read-out: MIC100.
Data set [21] relates to Acinetobacter baumannii. Description: Antibacterial activity against multi-drug resistant Acinetobacter baumannii Naval-17 assessed as inhibition of bacterial growth incubated for 16 to 18 hrs by CLSI protocol based method. The settings on record: time 16-18 hrs, read-out: MIC100. It is filed as functional.
The subject of data set [22] is Acinetobacter baumannii. Description: Antibacterial activity against multi-drug resistant Acinetobacter baumannii Naval-18 assessed as inhibition of bacterial growth incubated for 16 to 18 hrs by CLSI protocol based method. It is filed as functional. The conditions noted are these: time 16-18 hrs, read-out: MIC100.
Data set [23] relates to Acinetobacter baumannii. Description: Antibacterial activity against multi-drug resistant Acinetobacter baumannii Naval-81 assessed as inhibition of bacterial growth incubated for 16 to 18 hrs by CLSI protocol based method. It is filed as functional. The settings on record: time 16-18 hrs, read-out: MIC100.
Data set [24] relates to Acinetobacter baumannii. Description: Antibacterial activity against multi-drug resistant Acinetobacter baumannii WL-136 assessed as inhibition of bacterial growth incubated for 16 to 18 hrs by CLSI protocol based method. The class given is functional. The settings on record: time 16-18 hrs, read-out: MIC100.
The test system of data set [25] is Acinetobacter baumannii. Description: Antibacterial activity against multi-drug resistant Acinetobacter baumannii WL-487 assessed as inhibition of bacterial growth incubated for 16 to 18 hrs by CLSI protocol based method. It is filed as functional. The settings on record: time 16-18 hrs, read-out: MIC100.
In data set [26] the test system is Acinetobacter baumannii. Description: Antibacterial activity against Acinetobacter baumannii ATCC 17978 assessed as inhibition of bacterial growth incubated for 16 to 18 hrs by CLSI protocol based method. It is filed as functional. The settings on record: time 16-18 hrs, read-out: MIC100.
Data set [27] in a line: Cytotoxicity against African green monkey Vero cells assessed as reduction in cell viability incubated for 72 hrs by MTT assay. The class given is toxicity, cell-based. The settings on record: chlorocebus sabaeus.
Data set [28] is described as follows: Selectivity index, ratio of CC50 for cytotoxicity against African green monkey VERO cells to MIC for antibacterial activity against carbapenem-resistant Acinetobacter baumannii BAA 1605 assessed as inhibition of bacterial growth. The class given is toxicity, cell-based. The conditions noted are these: read-out: Selectivity Index.

Converted amounts (≈) assume the structure as drawn. Positions of bridges follow the written chain, without caps; N, C: chain ends. Non-standard residues stand in square brackets, D forms with d. Residues, ends and D or L forms follow the SMILES beside them. *: point of attachment. X1 = CC[C@H](C)CCCCC(=O)*; Dab = NCC[C@H](N)C(=O)O

With `CC(C)CCCCC(=O)N[C@@H](CCN)C(=O)N[C@H](C(=O)N[C@@H](CCN)C(=O)N[C@H]1CCNC(=O)[C@H]([C@@H](C)O)NC(=O)[C@H](CCN)NC(=O)[C@H](CCN)NC(=O)[C@H](CC(C)C)NC(=O)[C@@H](Cc2ccccc2)NC(=O)[C@H](CCN)NC1=O)[C@@H](C)O.CC[C@H](C)CCCCC(=O)N[C@@H](CCN)C(=O)N[C@H](C(=O)N[C@@H](CCN)C(=O)N[C@H]1CCNC(=O)[C@H]([C@@H](C)O)NC(=O)[C@H](CCN)NC(=O)[C@H](CCN)NC(=O)[C@H](CC(C)C)NC(=O)[C@@H](Cc2ccccc2)NC(=O)[C@H](CCN)NC1=O)[C@@H](C)O` (X1-[Dab]T[Dab][Dab][Dab][dF]L[Dab][Dab]T; lactam 4-C), the MIC in the data set on Acinetobacter baumannii [1] (read-out: MIC100), in the data set on Acinetobacter baumannii [2], in the data set on Acinetobacter baumannii [3], in the data set on Acinetobacter baumannii [4], in the data set with Acinetobacter baumannii [5] and in the data set with Acinetobacter baumannii [6] was 0.25 µg/mL throughout. Besides, the MIC was 0.25 µg/mL in the data set with Acinetobacter baumannii [7]; 0.25 µg/mL with Acinetobacter baumannii [8]; 0.5 µg/mL with Acinetobacter baumannii [9]; 0.5 µg/mL with Acinetobacter baumannii [10]; 0.5 µg/mL with Acinetobacter baumannii [11]; 0.25 µg/mL in the data set on Acinetobacter baumannii [12]. Also, the MIC in the data set with Acinetobacter baumannii [13] stood at 0.25 µg/mL; with Acinetobacter baumannii [14] it was 0.25 µg/mL; with Acinetobacter baumannii [15] it was 0.25 µg/mL; in the data set on Acinetobacter baumannii [16], 0.125 µg/mL; with Acinetobacter baumannii [17], 0.25 µg/mL; with Acinetobacter baumannii [18], 0.25 µg/mL. The MIC amounted to 0.25 µg/mL in the data set with Acinetobacter baumannii [19]; 0.25 µg/mL in the data set with Acinetobacter baumannii [20]; 0.25 µg/mL with Acinetobacter baumannii [21]; 0.25 µg/mL in the data set on Acinetobacter baumannii [22]; 0.125 µg/mL in the data set with Acinetobacter baumannii [23]; 0.25 µg/mL in the data set on Acinetobacter baumannii [24]. Further, the MIC is 0.5 µg/mL with Acinetobacter baumannii [25] and 0.25 µg/mL in the data set on Acinetobacter baumannii [26].

Take `COc1cccc2c1C(=O)c1c(O)c3c(c(O)c1C2=O)C[C@@](O)(C(=O)CO)C[C@@H]3O[C@H]1C[C@H](N)[C@H](O)[C@H](C)O1` [DOXORUBICIN]: in the data set on Acinetobacter baumannii [1] (read-out: MIC), the MIC was > 64 µg/mL. In addition, in data set [27], the half-maximal cytotoxic concentration (CC50) – broadly, the concentration at which the toxic effect on the cells reaches its halfway point – at 72 h is < 10 µg/mL. Besides, in [28], the selectivity ratio is < 1.

As to `C[C@@H](O)[C@H]1C(=O)N2C(C(=O)O)=C(S[C@@H]3CN[C@H](C(=O)N(C)C)C3)[C@H](C)[C@H]12` [MEROPENEM], the MIC with Acinetobacter baumannii [1] (read-out: MIC100) is 16 µg/mL (≈ 41.7 µM); in the data set with Acinetobacter baumannii [2], 32 µg/mL (≈ 83.4 µM); in the data set on Acinetobacter baumannii [3] it was 16 µg/mL (≈ 41.7 µM); in the data set with Acinetobacter baumannii [4] it was 32 µg/mL (≈ 83.4 µM); in the data set with Acinetobacter baumannii [5] it was 16 µg/mL (≈ 41.7 µM); in the data set on Acinetobacter baumannii [6], 32 µg/mL (≈ 83.4 µM). For the same molecule, the MIC in the data set on Acinetobacter baumannii [7] was > 64 µg/mL; in the data set on Acinetobacter baumannii [8], > 64 µg/mL; in the data set with Acinetobacter baumannii [9], 2 µg/mL (≈ 5.22 µM); in the data set with Acinetobacter baumannii [10] it was 64 µg/mL (≈ 167 µM); with Acinetobacter baumannii [11] it was > 64 µg/mL; with Acinetobacter baumannii [12] it was 16 µg/mL (≈ 41.7 µM). The MIC in the data set on Acinetobacter baumannii [13] is 64 µg/mL (≈ 167 µM); with Acinetobacter baumannii [14] it was > 64 µg/mL; with Acinetobacter baumannii [15], 4 µg/mL (≈ 10.4 µM); with Acinetobacter baumannii [16], 4 µg/mL (≈ 10.4 µM); in the data set on Acinetobacter baumannii [17], 4 µg/mL (≈ 10.4 µM); in the data set on Acinetobacter baumannii [18] it was 8 µg/mL (≈ 20.9 µM). Moreover, the MIC in the data set with Acinetobacter baumannii [19] was 2 µg/mL (≈ 5.22 µM); with Acinetobacter baumannii [20] it was > 64 µg/mL; with Acinetobacter baumannii [21] it was 4 µg/mL (≈ 10.4 µM); in the data set on Acinetobacter baumannii [22], 64 µg/mL (≈ 167 µM); in the data set on Acinetobacter baumannii [23] it was 4 µg/mL (≈ 10.4 µM); in the data set with Acinetobacter baumannii [24], 2 µg/mL (≈ 5.22 µM). The results for the MIC with Acinetobacter baumannii [25] and with Acinetobacter baumannii [26] were 1 µg/mL (≈ 2.61 µM) and 0.5 µg/mL (≈ 1.3 µM), respectively.
